From patent US20160130226A1, “SPIRO-SUBSTITUTED OXINDOLE DERIVATIVES HAVING AMPK ACTIVITY” (BOEHRINGER INGELHEIM INTERNATIONAL GMBH, priority 2013, published 2016)

Assays:
AMPK beta 1 = target: T1, AMPK beta 1 (Homo sapiens, UniProt Q13131+Q9Y478); test: in-cell-ELISA for phospho-ACC: activation of AMPK, beta 1 (HepG2 cells / C2C12 myotubes); format: cell-based; conditions: 2 h, percentage activation over vehicle control
T1 construct: in-cell-ELISA for phospho-ACC (Acetyl-CoA carboxylase 1) in HepG2 cells (liver); endogenous in cells; host or cells: HepG2 (assignment to the beta 1 column inferred)
T1 sequence (Q9Y478 2-270 limits assumed): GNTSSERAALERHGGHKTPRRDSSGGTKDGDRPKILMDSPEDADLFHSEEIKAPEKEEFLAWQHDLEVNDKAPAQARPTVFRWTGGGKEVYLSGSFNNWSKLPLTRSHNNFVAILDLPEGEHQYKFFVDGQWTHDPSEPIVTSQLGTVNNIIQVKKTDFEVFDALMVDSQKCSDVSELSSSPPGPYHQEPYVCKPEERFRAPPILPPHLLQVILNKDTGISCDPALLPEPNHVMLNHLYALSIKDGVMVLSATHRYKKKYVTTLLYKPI
T1 sequence (Q13131 whole entry): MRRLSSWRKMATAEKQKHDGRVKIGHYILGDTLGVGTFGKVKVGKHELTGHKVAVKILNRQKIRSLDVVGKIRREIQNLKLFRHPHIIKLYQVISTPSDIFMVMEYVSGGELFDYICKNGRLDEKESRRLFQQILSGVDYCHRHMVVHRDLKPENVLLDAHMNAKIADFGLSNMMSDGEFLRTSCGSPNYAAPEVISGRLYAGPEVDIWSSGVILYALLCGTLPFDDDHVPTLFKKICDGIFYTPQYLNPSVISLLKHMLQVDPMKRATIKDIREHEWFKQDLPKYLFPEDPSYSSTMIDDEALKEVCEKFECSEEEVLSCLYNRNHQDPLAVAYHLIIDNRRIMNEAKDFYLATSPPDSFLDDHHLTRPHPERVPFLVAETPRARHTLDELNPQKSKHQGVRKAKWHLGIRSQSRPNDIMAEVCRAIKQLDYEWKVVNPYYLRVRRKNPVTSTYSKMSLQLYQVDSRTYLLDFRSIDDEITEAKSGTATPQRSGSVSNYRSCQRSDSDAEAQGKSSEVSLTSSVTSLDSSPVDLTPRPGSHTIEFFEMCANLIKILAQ
T1 sequence (P54619 whole entry partner): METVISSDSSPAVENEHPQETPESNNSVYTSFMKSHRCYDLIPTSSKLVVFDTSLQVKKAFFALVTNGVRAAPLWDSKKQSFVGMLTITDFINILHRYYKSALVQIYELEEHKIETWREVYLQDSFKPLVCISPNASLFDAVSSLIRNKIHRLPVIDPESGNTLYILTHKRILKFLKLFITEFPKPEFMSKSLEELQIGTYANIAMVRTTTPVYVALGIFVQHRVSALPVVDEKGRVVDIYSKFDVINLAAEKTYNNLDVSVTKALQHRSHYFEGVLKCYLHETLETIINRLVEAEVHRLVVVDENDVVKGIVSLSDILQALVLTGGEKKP
Method: (§1) Activation of AMPK by various compounds were measured using in-cell-ELISA for phospho-ACC (Acetyl-CoA carboxylase 1) in HepG2 cells (liver) and fully differentiated myotubes (C2C12 cells) grown in 96 well plate. Cells were treated with 1 μM, 3 μM or 10 μM of the molecule (Example) for 2 h in serum free DMEM media. After methanol fixation, cells were blocked with BSA followed by addition of anti-phospho ACC antibody (Cell Signaling) and HRP conjugated secondary antibody. Absorbance values taken at 450 nm were normalized with total DNA (Hoechest stain). Results were expressed as percentage activation over vehicle control.
(§2) Percentage activation at compound (Example) concentration of 1, 3 or 10 μM for compounds according to the invention are shown in the following table. The number of the compound corresponds to the number of the Example (Ex) in the experimental section.

AMPK beta 2 = target: T2, AMPK beta 2 (Mus musculus, UniProt Q6PAM0+Q8BRK8); test: in-cell-ELISA for phospho-ACC: activation of AMPK, beta 2 (HepG2 cells / C2C12 myotubes); format: cell-based; conditions: 2 h, percentage activation over vehicle control; for activation at 3 µM / activation at 1 µM: read-out: Percentage activation of beta 2 at given concentration
T2 construct: fully differentiated myotubes (C2C12 cells) grown in 96 well plate; endogenous in cells; host or cells: C2C12 myotubes (assignment to the beta 2 column inferred)
T2 sequence (Q6PAM0 whole entry): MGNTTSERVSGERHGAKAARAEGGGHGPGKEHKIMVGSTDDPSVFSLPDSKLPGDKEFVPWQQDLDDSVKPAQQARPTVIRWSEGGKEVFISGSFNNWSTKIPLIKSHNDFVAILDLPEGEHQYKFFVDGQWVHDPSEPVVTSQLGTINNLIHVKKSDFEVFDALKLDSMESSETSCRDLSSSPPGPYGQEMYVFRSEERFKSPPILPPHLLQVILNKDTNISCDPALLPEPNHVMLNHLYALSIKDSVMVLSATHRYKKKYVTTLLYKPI
T2 sequence (Q8BRK8 whole entry): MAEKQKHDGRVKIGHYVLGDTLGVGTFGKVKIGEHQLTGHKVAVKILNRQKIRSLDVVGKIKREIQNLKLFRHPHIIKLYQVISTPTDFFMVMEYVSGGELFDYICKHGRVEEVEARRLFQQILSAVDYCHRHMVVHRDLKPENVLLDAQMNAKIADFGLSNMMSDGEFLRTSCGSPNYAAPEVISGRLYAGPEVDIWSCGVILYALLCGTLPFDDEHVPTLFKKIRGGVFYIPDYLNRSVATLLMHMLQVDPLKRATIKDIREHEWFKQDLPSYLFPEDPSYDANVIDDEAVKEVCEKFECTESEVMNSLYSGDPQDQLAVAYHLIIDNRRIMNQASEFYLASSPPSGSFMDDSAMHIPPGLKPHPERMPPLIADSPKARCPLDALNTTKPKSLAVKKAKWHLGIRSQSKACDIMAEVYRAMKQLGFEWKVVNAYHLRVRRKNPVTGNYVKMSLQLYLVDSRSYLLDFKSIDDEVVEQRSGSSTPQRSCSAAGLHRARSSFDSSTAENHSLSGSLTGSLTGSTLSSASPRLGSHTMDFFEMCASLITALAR
T2 sequence (O54950 whole entry partner): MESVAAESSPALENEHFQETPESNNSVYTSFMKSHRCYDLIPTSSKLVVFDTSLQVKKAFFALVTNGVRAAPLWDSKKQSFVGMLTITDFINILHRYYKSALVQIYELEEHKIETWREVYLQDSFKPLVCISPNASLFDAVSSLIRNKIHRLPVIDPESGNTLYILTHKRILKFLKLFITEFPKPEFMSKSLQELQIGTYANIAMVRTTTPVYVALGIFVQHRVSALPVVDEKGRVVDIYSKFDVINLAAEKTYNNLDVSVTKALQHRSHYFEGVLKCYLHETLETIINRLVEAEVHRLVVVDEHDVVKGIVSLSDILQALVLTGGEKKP
Method: as §1, §2

[1] = 1 μM, read-out: Percentage activation of beta 1 at given concentration
[2] = 3 μM, read-out: Percentage activation of beta 1 at given concentration

| SMILES | activation at 1 µM (AMPK beta 1; [1]) [%] | activation at 3 µM (AMPK beta 2; 3 μM) [%] | activation at 1 µM (AMPK beta 2; 1 μM) [%] | other results |
| --- | --- | --- | --- | --- |
| Cc1ccc(C2CC23C(=O)N(C)c2cc(Cl)c(-c4ccc(-c5ccncc5)cc4)cc23)cc1C(=O)O (stereo not shown) [Example 101] | 103 | 46 |  |  |
| COc1ccc(C2CC23C(=O)Nc2cc(Cl)c(-c4ccc(-c5ccc(-n6cncn6)cc5)cc4)cc23)cc1C(=O)O (stereo not shown) [Example 128] | 66 | 198 |  |  |
| Cc1ccc(C2CC23C(=O)Nc2cc(F)c(-c4ccc(-c5ccccc5O)cc4)cc23)cc1C(=O)O (stereo not shown) [Example 5] |  |  | 50 | activation at 3 µM (AMPK beta 1; [2]): 133% |
| O=C(O)Cc1ccc(C2CC23C(=O)Nc2cc(Cl)c(-c4ccc(-c5ccccc5O)cc4)cc23)cc1 (stereo not shown) [Example 33] |  | 83 |  | activation at 3 µM (AMPK beta 1; [2]): 71% |
| Cc1ccc(C2CC23C(=O)N(CC2CC2)c2cc(Cl)c(-c4ccc(-c5ccncc5)cc4)cc23)cc1C(=O)O (stereo not shown) [Example 108] |  |  |  | Percentage activation of beta 1 at given concentration (AMPK beta 1; 3 μM): 72% at 3 μM; Percentage activation of beta 2 at given concentration (AMPK beta 2; 3 μM): 54% at 3 μM |
| Cc1ccc(C2CC23C(=O)Nc2cc(Cl)c(-c4ccc(-c5ccc(-n6cncn6)cc5)cc4)nc23)cc1C(=O)O (stereo not shown) [Example 125] | 81 |  | 46 |  |
| Cc1ccc(C2CC23C(=O)Nc2cc(Cl)c(-c4ccc(-c5ccc(-n6cncn6)cc5)cc4)cc23)cc1C(=O)O (stereo not shown) [Example 115] |  |  | 114 | Percentage activation of beta 1 at given concentration (AMPK beta 1; 1 μM): 132% at 1 μM |
| Cc1ccc(C2CC23C(=O)Nc2cc(F)c(-c4ccc(-c5ccc(-n6cncn6)cc5)cc4)cc23)cc1C(=O)O (stereo not shown) [Example 145] |  |  |  | Percentage activation of beta 1 at given concentration (AMPK beta 1; 1 μM): 67% at 1 μM; Percentage activation of beta 2 at given concentration (AMPK beta 2; 1 μM): 138% at 1 μM |
| Cc1ccc(C2CC23C(=O)Nc2cc(Cl)c(-c4ccc(-c5ccc(-n6cccn6)cc5)cc4)cc23)cc1C(=O)O (stereo not shown) [Example 114] | 79 | 57 |  |  |
| CCN1C(=O)C2(CC2c2ccc(C)c(C(=O)O)c2)c2cc(-c3ccc(-c4ccncc4)cc3)c(Cl)cc21 (stereo not shown) [Example 103] |  | 2 |  | activation at 3 µM (AMPK beta 1; [2]): 74% |
| CC(C)(C(=O)O)c1ccc(C2CC23C(=O)Nc2cc(Cl)c(-c4ccc(-c5ccccc5O)cc4)cc23)cc1 (stereo not shown) [Example 38] | 58 | 106 |  |  |
| Cc1ccc(C2CC23C(=O)Nc2cc(F)c(-c4ccc(-c5ccc(-n6cncn6)cc5)cc4)cc23)cc1C(=O)O (stereo not shown) [Example 146] |  |  |  | Percentage activation of beta 1 at given concentration (AMPK beta 1; 1 μM): 78% at 1 μM; Percentage activation of beta 2 at given concentration (AMPK beta 2; 1 μM): 89% at 1 μM |
| CCc1ccc(C2CC23C(=O)Nc2cc(Cl)c(-c4ccc(-c5ccc(-n6cncn6)cc5)cc4)cc23)cc1C(=O)O (stereo not shown) [Example 130] | 52 |  | 102 |  |
| O=C(O)c1cccc(C2CC23C(=O)Nc2cc(Cl)c(-c4ccc(-c5ccncc5)cc4)cc23)c1 (stereo not shown) [Example 80] |  | 54 |  | activation at 10 µM (AMPK beta 1; 10 μM, read-out: Percentage activation of beta 1 at given concentration): 137% |
| CC(C)c1ccc(C2CC23C(=O)Nc2cc(Cl)c(-c4ccc(C5(CO)CC5)cc4)cc23)cc1C(=O)O (stereo not shown) [Example 46] |  | 42 |  | activation at 3 µM (AMPK beta 1; [2]): 83% |
| Cc1ccc(C2CC23C(=O)N(CC2CC2)c2cc(Cl)c(-c4ccc(-c5ccncc5)cc4)cc23)cc1C(=O)O (stereo not shown) [Example 107] | 94 | 65 |  |  |
| CCc1ccc(C2CC23C(=O)Nc2cc(Cl)c(-c4ccc(-c5ccc(-n6cncn6)cc5)cc4)nc23)cc1C(=O)O (stereo not shown) [Example 133] | 49 |  | 36 |  |
| Cc1ccc(C2CC23C(=O)Nc2cc(Cl)c(-c4ccc(-c5ccc(-n6cccn6)cc5)cc4)nc23)cc1C(=O)O (stereo not shown) [Example 138] | 72 |  | 173 |  |
| Cc1ccc(C2CC23C(=O)Nc2cc(Cl)c(-c4ccc(-c5ccnc(N(C)C)c5)cc4)cc23)cc1C(=O)O (stereo not shown) [Example 86] |  | 49 |  | activation at 3 µM (AMPK beta 1; [2]): 95% |
| Cc1ccc(C2CC23C(=O)Nc2cc(Cl)c(-c4ccc(-c5ccc(S(C)(=O)=O)cc5)cc4)cc23)cc1C(=O)O (stereo not shown) [Example 97] | 99 |  | 37 |  |
| COc1ccc(C2CC23C(=O)Nc2cc(Cl)c(-c4ccc(-c5ccccc5O)cc4)cc23)cc1CC(=O)O (stereo not shown) [Example 25] | 62 | 101 |  |  |
| Cc1ccc(C2CC23C(=O)Nc2cc(Cl)c(-c4ccc(-c5ccncc5)cc4)cc23)cc1C(=O)O (stereo not shown) [Example 60] | 66 | 105 |  |  |
| CC(C)c1ccc(C2CC23C(=O)Nc2cc(Cl)c(-c4ccc(-c5ccc(-n6cncn6)cc5)cc4)cc23)cc1C(=O)O (stereo not shown) [Example 132] | 59 |  | 153 |  |
| CC(C)c1ccc(C2CC23C(=O)N(C)c2cc(Cl)c(-c4ccc(-c5ccncc5O)cc4)cc23)cc1C(=O)O (stereo not shown) [Example 40] |  | 32 |  | activation at 3 µM (AMPK beta 1; [2]): 99% |
| COc1ccc(C2CC23C(=O)N(C)c2cc(Cl)c(-c4ccc(-c5ccccc5O)cc4)cc23)cc1CC(=O)O (stereo not shown) [Example 35] |  | 23 |  | activation at 3 µM (AMPK beta 1; [2]): 27% |

Now from value to molecule, other results behind:

| activation at 1 µM (AMPK beta 1; [1]) [%] | activation at 3 µM (AMPK beta 2; 3 μM) [%] | activation at 1 µM (AMPK beta 2; 1 μM) [%] | SMILES | other results |
| --- | --- | --- | --- | --- |
|  |  | 79 | CC(C)(C(=O)O)c1ccc(C2CC23C(=O)Nc2cc(F)c(-c4ccc(-c5ccc(-n6cncn6)cc5)cc4)cc23)cc1 (stereo not shown) [Example 162] | Percentage activation of beta 1 at given concentration (AMPK beta 1; 1 μM): 61% at 1 μM |
| 91 |  | 126 | COc1ccc(C2CC23C(=O)Nc2cc(F)c(-c4ccc(-c5ccc(-n6cccn6)cc5)cc4)cc23)cc1CC(=O)O (stereo not shown) [Example 176] |  |
| 78 |  | 38 | CC(C)(C(=O)O)c1ccc(C2CC23C(=O)Nc2cc(F)c(-c4ccc(-c5ccc(-n6cccn6)cc5)cc4)cc23)cc1 (stereo not shown) [Example 158] |  |
|  |  | 283 | COc1ccc(C2CC23C(=O)Nc2cc(Cl)c(-c4ccc(-c5ccc(-n6ccnn6)cc5)cc4)cc23)cc1C(=O)O (stereo not shown) [Example 139] | activation at 3 µM (AMPK beta 1; [2]): 85% |
| 55 |  | 84 | COc1ccc(C2CC23C(=O)Nc2cc(F)c(-c4ccc(-c5ccc(-n6cncn6)cc5)cc4)cc23)cc1C(=O)O (stereo not shown) [Example 168] |  |
| 119 |  | 60 | O=C(O)Cc1cccc(C2CC23C(=O)Nc2cc(F)c(-c4ccc(-c5ccc(-n6cncn6)cc5)cc4)cc23)c1 (stereo not shown) [Example 175] |  |
| 18 |  | 81 | Cc1ccc(C2CC23C(=O)Nc2cc(Cl)c(-c4ccc(-c5ccc(-n6ccnc6C)cc5)cc4)cc23)cc1C(=O)O (stereo not shown) [Example 150] |  |
| 88 |  | 88 | Cc1ccc(C2CC23C(=O)Nc2cc(Cl)c(-c4ccc(-c5ccccc5O)cc4)cc23)cc1CO (stereo not shown) [Example 181] |  |
| 58 |  | 50 | O=C(O)c1cccc(C2CC23C(=O)Nc2cc(F)c(-c4ccc(-c5ccc(-n6cccn6)cc5)cc4)cc23)c1 (stereo not shown) [Example 170] |  |
|  |  | 66 | Cc1ccc(C2CC23C(=O)Nc2cc(F)c(-c4ccc(-c5ccc(-n6cccn6)cc5)cc4)cc23)cc1C(=O)O (stereo not shown) [Example 142] | Percentage activation of beta 1 at given concentration (AMPK beta 1; 1 μM): 89% at 1 μM |
| 98 |  | 120 | COc1ccc(C2CC23C(=O)Nc2cc(F)c(-c4ccc(-c5ccc(-n6cncn6)cc5)cc4)cc23)cc1CC(=O)O (stereo not shown) [Example 178] |  |
| 121 |  | 94 | Cc1ccc(C2CC23C(=O)Nc2cc(F)c(-c4ccc(-c5ccccc5O)cc4)cc23)cc1CO (stereo not shown) [Example 190] |  |
| 36 |  | 61 | COc1ccc(C2CC23C(=O)Nc2cc(F)c(-c4ccc(-c5ccc(-n6ccnn6)cc5)cc4)cc23)cc1C(=O)O (stereo not shown) [Example 169] |  |
